Results taken from US20230192644A1, “PIPERIDINE-2,6-DIONES AS SMALL MOLECULE DEGRADERS OF HELIOS AND METHODS OF USE” (DANA-FARBER CANCER INSTITUTE, INC., priority 2020, published 2023).
Where two headings read alike, the source gives them in different places.

Legend:
Type in all cases: cell-based
IKZF2 [1] = molecular target: T1, IKZF2 (Homo sapiens, UniProt Q96SW2+Q9UKS7); test: HiBit-IKZF2 degradation assay in Molt4 cells
T1 construct: knocked into the endogenous IKZF2 or IKZF1 locus of Molt4 cells; endogenous in cells; host or cells: Molt4 (CRISPR/Cas9 HiBit knock-in)
Protocol: (§1) The HiBit tag was knocked into the endogenous IKZF2 or IKZF1 locus of Molt4 cells to generate a HiBit-IKZF2 or HiBit-IKZF1 fusion proteins via CRISPR/Cas9 gene editing. Cells were then treated with a 12 point concentration curve of the indicated compounds, and luminescence (corresponding to Helios abundance) was detected after 6 hours using the Nano-Glo® HiBit Lytic Detection system (Promega™). The concentration necessary to achieve 50% degradation (DC50) was calculated using Prism (GraphPad).

IKZF1 [2] = molecular target: T2, IKZF1 (Homo sapiens, UniProt Q13422+Q96SW2); test: HiBit-IKZF1 degradation assay in Molt4 cells
T2 construct: knocked into the endogenous IKZF2 or IKZF1 locus of Molt4 cells; endogenous in cells; host or cells: Molt4 (CRISPR/Cas9 HiBit knock-in)
Protocol: as §1

IKZF2 [3] = test: GFP-IKZF2 cellular degradation assay (eGFP fusion/mCherry reporter, Flip-In 293 cells); conditions: Flip-In 293 cells stably expressing IKZF2 GFP fusion with mCherry reporter, 5 h
Protocol: IKZF1A and IKZF2A were subcloned into mammalian pcDNA5/FRT Vector (Ampicillin and Hygromycin B resistant) modified to contain MCS-eGFP-P2A-mCherry. Stable cell lines expressing eGFP-protein fusion and mCherry reporter were generated using Flip-In 293 system. Plasmid (0.3 μg) and pOG44 (4.7 μg) DNA were preincubated in 100 μL of Opti-MEM™ I (Gibco™, Life Technologies™) media containing 0.05 mg/mL Lipofectamine™ 2000 (Invitrogen™) for 20 min and added to Flip-In 293 cells containing 1.9 mL of DMEM media (Gibco™, Life Technologies™) per well in a 6-well plate format (Falcon, 353046). Cells were propagated for 48 h and were then transferred into a 10 cm^2 plate (Corning, 430165) in DMEM media containing 50 μg/mL of Hygromycin B (REF 10687010, Invitrogen™) as a selection marker. Following 2-3 passage cycle, FACS (FACSAria™ II, BD) was used to enrich for cells expressing eGFP and mCherry.
(§2) Cells stably expressing the IKZF1A, or IKZF2A GFP fusions with mCherry reporter were seeded at 30-50% confluency in 384-well plates with 50 μL FluoroBrite™ DMEM media (Thermo Fisher Scientific™ A18967) containing 10% FBS per well a day before compound treatment. Compound titrations were dispensed using a D300e Digital Dispenser (HP), normalized to 0.5% DMSO, and incubated with cells for 5 hours.
(§3) The assay plate was imaged immediately using an Acumen High Content Imager (TTP Labtech) with 488 nm and 561 nm lasers in […] per well format. The resulting images were analyzed using CellProfiler (Carpenter et al., Genome Biol. 2006, 7:R100). A series of image analysis steps (‘image analysis pipeline’) was constructed. First, the red and green channels were aligned and cropped to target the middle of each well (to avoid analysis of heavily clumped cells at the edges), and a background illumination function was calculated for both red and green channels of each well individually and subtracted to correct for illumination variations across the 384-well plate from various sources of error. An additional step was then applied to the green channel to suppress the analysis of large auto fluorescent artifacts and enhance the analysis of cell specific fluorescence by way of selecting for objects under a given size, 30 A.U., and with a given shape, speckles. mCherry-positive cells were then identified in the red channel filtering for objects between 8-60 pixels in diameter and using intensity to distinguish between clumped objects. The green channel was then segmented into GFP positive and negative areas and objects were labeled as GFP positive if at least 40% of it overlapped with a GFP positive area. The fraction of GFP-positive cells/mCherry-positive cells in each well was then calculated, and the green and red images were rescaled for visualization. The concentrations that lead to half degradation at 5 h (DC50, 5h) were calculated using the nonlinear fit variable slope model (GraphPad Software).

IKZF1 [4] = molecular target: T3, IKZF1 (Homo sapiens, UniProt Q13422); test: GFP-IKZF1 cellular degradation assay (eGFP fusion/mCherry reporter, Flip-In 293 cells)
T3 construct: expressed in transfected cells
Protocol: IKZF1A and IKZF2A were subcloned into mammalian pcDNA5/FRT Vector (Ampicillin and Hygromycin B resistant) modified to contain MCS-eGFP-P2A-mCherry. […] Following 2-3 passage cycle, FACS (FACSAria™ II, BD) was used to enrich for cells expressing eGFP and mCherry.
as §2
as §3, with “The resulting images were analyzed using CellProfiler (Carpenter et al., Genome Biol. 2006, 7:R100).” left out

Helios = molecular target: T4, Helios (Homo sapiens, UniProt Q96SW2+Q9UKS7); test: Degradation in Jurkat cells (immunoblot); conditions: 4 hours, indicated concentrations
T4 construct: Immunoblots for Ikaros, Helios, and Actin from wildtype Jurkat cells; endogenous in cells; host or cells: wild-type Jurkat cells
Protocol: Cells were lysed in M-PER® buffer (Thermo Scientific) containing protease/phosphatase inhibitor cocktail (Roche). Protein concentration was measured using a BCA assay (Pierce™). Equivalent amounts of each sample were loaded on 4-12% Bis-Tris gels (Invitrogen™), transferred to nitrocellulose membranes, and immunoblotted with the indicated antibodies. IRDye®800-labeled goat anti-rabbit IgG and IRDye®680-labeled goat anti-mouse IgG (LI-COR®) secondary antibodies were purchased from LI-COR®, and membranes were detected on an Odyssey® detection system (LI-COR® Biosciences).
Immunoblots for Ikaros, Helios, and Actin from wildtype Jurkat cells treated with compound 36 or 65 for 4 hours at the indicated concentrations were generated (FIG. 1).

T2 sequence (Q13422 whole entry): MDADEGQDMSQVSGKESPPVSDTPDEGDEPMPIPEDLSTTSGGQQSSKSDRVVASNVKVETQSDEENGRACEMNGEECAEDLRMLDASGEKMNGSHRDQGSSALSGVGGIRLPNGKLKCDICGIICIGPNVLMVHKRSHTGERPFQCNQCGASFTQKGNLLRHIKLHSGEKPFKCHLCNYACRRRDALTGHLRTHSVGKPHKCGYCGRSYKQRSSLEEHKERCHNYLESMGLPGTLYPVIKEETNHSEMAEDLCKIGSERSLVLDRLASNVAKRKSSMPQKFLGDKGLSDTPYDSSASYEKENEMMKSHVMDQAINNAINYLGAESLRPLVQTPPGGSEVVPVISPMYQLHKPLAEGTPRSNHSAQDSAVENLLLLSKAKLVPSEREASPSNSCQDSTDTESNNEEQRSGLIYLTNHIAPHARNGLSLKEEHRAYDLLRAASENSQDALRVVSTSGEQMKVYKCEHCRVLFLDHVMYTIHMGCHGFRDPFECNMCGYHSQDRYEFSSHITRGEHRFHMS
T2 sequence (Q96SW2 whole entry): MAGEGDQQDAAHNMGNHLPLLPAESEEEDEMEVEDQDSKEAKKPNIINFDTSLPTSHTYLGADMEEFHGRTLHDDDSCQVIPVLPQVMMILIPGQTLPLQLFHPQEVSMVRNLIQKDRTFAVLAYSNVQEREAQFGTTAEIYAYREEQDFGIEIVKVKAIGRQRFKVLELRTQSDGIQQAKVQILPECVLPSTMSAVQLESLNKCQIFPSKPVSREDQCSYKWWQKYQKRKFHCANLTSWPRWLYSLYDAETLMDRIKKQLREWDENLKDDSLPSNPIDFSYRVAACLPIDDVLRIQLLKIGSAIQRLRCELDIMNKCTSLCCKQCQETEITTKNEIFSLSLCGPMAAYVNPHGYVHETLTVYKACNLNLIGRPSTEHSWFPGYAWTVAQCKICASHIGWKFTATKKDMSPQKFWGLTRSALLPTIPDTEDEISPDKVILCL
T2 sequence (Q16531 whole entry partner): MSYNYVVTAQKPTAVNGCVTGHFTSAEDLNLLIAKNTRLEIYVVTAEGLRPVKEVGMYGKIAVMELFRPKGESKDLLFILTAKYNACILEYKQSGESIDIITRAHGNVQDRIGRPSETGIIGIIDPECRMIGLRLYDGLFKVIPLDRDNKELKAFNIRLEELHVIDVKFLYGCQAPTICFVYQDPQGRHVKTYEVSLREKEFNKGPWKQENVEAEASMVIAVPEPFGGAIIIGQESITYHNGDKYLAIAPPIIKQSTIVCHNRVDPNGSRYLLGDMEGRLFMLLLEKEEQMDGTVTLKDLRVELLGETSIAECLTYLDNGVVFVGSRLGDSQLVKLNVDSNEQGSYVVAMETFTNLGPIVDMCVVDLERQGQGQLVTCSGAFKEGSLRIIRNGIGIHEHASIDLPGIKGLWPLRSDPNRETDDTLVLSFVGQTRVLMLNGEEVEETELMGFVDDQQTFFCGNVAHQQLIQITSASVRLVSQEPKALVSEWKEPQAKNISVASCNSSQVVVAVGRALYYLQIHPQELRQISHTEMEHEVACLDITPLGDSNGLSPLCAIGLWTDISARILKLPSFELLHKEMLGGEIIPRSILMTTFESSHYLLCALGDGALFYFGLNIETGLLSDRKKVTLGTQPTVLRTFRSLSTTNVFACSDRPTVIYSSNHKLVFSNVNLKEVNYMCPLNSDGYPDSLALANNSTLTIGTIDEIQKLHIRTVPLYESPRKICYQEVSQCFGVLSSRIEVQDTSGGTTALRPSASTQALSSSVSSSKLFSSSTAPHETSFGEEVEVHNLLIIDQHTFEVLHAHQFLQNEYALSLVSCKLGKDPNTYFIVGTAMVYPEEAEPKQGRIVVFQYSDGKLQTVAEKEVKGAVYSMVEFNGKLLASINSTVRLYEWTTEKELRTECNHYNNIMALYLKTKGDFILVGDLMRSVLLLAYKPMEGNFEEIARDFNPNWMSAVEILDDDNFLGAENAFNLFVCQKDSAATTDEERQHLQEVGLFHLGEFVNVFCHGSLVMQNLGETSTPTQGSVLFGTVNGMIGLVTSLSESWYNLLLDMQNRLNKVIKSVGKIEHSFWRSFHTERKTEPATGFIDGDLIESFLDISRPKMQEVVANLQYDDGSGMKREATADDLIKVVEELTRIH
T3 sequence (Q13422 83-213 isoform Q13422-7 limits assumed): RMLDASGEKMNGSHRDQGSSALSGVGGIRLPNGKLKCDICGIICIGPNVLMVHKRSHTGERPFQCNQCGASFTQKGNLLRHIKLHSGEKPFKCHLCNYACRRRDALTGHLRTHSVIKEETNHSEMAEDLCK
T3 sequence (Q96SW2 whole entry partner, the tested form may be a part): as the sequence (Q96SW2 whole entry) above
T3 sequence (Q16531 whole entry partner, the tested form may be a part): as the sequence (Q16531 whole entry partner) above
T4 sequence (Q9UKS7 whole entry): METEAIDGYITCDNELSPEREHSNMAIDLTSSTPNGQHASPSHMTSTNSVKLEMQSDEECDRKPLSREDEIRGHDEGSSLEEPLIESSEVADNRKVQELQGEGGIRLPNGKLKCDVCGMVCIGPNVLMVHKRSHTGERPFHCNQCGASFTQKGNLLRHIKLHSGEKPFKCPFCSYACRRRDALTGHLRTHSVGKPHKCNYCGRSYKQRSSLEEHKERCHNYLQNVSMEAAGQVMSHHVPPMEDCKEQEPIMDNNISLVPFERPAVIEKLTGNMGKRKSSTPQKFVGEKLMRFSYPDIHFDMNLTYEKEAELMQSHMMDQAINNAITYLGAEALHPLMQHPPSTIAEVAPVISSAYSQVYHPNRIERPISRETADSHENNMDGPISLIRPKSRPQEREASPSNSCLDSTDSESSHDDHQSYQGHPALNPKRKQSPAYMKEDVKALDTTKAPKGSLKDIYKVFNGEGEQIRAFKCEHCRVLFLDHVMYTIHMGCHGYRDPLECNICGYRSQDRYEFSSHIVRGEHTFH
T4 sequence (Q96SW2 whole entry): as the sequence (Q96SW2 whole entry) above
T4 sequence (Q16531 whole entry partner): as the sequence (Q16531 whole entry partner) above
T1 sequence (Q9UKS7 whole entry): as the sequence (Q9UKS7 whole entry) above
T1 sequence (Q96SW2 whole entry): as the sequence (Q96SW2 whole entry) above
T1 sequence (Q16531 whole entry partner): as the sequence (Q16531 whole entry partner) above

Row | Structure (SMILES) | DC50 (IKZF2 [1]; Molt4 cells with endogenous HiBit-IKZF2 knock-in, 6 hours, Nano-Glo HiBit luminescence; read-out: IKZF2 DC50) [nM] | DC50 (IKZF1 [2]; Molt4 cells with endogenous HiBit-IKZF1 knock-in, 6 hours, Nano-Glo HiBit luminescence; read-out: IKZF1 DC50) [nM] | DC50 (IKZF2 [3]) [nM] | DC50 (IKZF1 [4]; Flip-In 293 cells stably expressing IKZF1 GFP fusion with mCherry reporter, 5 h; read-out: GFP IKZF1 DC50) [nM] | Helios degradation (immunoblot, FIG. 1) (Helios) | DC50 (IKZF2 [1]; read-out: IKZF2 DC50; Molt4 cells with endogenous HiBit-IKZF2 knock-in, 6 hours, Nano-Glo HiBit luminescence) [nM] | DC50 (IKZF1 [2]; read-out: IKZF1 DC50; Molt4 cells with endogenous HiBit-IKZF1 knock-in, 6 hours, Nano-Glo HiBit luminescence) [nM] | DC50 (IKZF1 [4]; read-out: GFP IKZF1 DC50; Flip-In 293 cells stably expressing IKZF1 GFP fusion with mCherry reporter, 5 h) [nM]
1 | CN(C)C(CC(=O)Nc1cccc(C(F)(F)F)c1)c1cccc(NC2=CC(=O)N(C3CCC(=O)NC3=O)C2=O)c1 (stereo not shown) [Compound 36, 3-(dimethylamino)-3-(3-((1-(2,6-dioxopiperidin-3-yl)-2,5-dioxo-2,5-dihydro-1H-pyrrol-3-yl)amino)phenyl)-N-(3-(trifluoromethyl)phenyl)propanamide] | 2.5 | 15 | 2.3 | 5.4 | Helios degradation |  |  | 
2 | CC(C)(NCCc1cccc(C(F)(F)F)c1)c1cccc(NC2=CC(=O)N(C3CCC(=O)NC3=O)C2=O)c1 (stereo not shown) [Compound 65, 3-(2,5-dioxo-3-((3-(2-((3-(trifluoromethyl)phenethyl)amino)propan-2-yl)phenyl)amino)-2,5-dihydro-1H-pyrrol-1-yl)piperidine-2,6-dione] |  |  | 3.6 |  | Helios degradation | 17 | 18 | 5.1
